Experimental data published in ChEMBL document CHEMBL5604062, “ASAP - ZIKV NS2B-NS3 protease fluorescence dose response” (2024).
“And” between values parts separate entries of the source, which are not always exact repeats. Identical values can stand only once.

These compounds were tested against Nonstructural protein 3 (Zika virus, UniProt A0A024AXB9) (assay: Functional biochemical assay to identify treatments for viral infectious disease that targets Zika NS2B-NS3 protease. Utilizing a direct enzyme activity measurement method, reading the fluorescence intensity is used to characterize the relative potency of inhibitors as IC50.).
Sequence of Nonstructural protein 3 (A0A024AXB9 whole entry): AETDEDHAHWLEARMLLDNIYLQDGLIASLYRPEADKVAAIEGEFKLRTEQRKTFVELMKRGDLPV
Set-up: species or system PRVABC59

SMILES | IC50
CCc1cc(C(=O)Nc2cccc(CN)c2)sc1C | > 99.5 µM
CCC(C)(C)C(=O)N[C@H](C(=O)Nc1cccc(CN)c1)c1ccc(OCc2ccccc2)cc1 | > 99.5 µM
NCc1cccc(NC(=O)C[C@H](NC(=O)OCc2ccccc2)C2CCCCC2)c1 | 83.1 µM and 78.1 µM
CC(C)(C)O[C@H]1CCCN(C(=O)Nc2ccc3c(c2)CNC3)C1 | > 25 µM
NCCc1ccc(NC(=O)c2cc(Cl)cc(NC(=O)OCc3ccccc3)c2)cc1 | 10.7 µM
O=C1O[C@H]2CCN(Cc3ccc(OCc4ccccc4)cc3)C[C@H]12 | > 99.5 µM
O=C(N[C@H](C(=O)NCc1cccc(CO)n1)c1ccc(OCc2ccccc2)cc1)OCc1ccccc1 | > 99.5 µM
Cn1cc(C(=O)N2CCC([C@H](NC(=O)OCc3ccccc3)C(=O)Nc3cccc(CN)c3)CC2)cn1 | > 99.5 µM
CS(=O)(=O)c1ccc(-c2cccc([C@H](NC(=O)OCc3ccccc3)C(=O)Nc3cccc(CN)c3)c2)cn1 | > 99.5 µM
CC1(C)OB(c2ccc(Cl)cc2CNC2CCCCC2)OC1(C)C | > 99.5 µM
NCc1cccc(NC(=O)[C@@H](NC(=O)OCc2ccccc2)C2CCN(C3CCOCC3)CC2)c1 | > 99.5 µM
CN(C)Cc1csc(NC(=O)[C@@H](NC(=O)OCc2ccccc2)c2ccc(OCc3ccccc3)cc2)n1 | > 99.5 µM
Brc1cccc2cn(Cc3ncccn3)nc12 | > 99.5 µM
Cc1c(C(=O)Nc2cc(C(=O)N3CCOC[C@H](O)C3)ccn2)cc(C2CC2)n1C | > 25 µM
Cn1cnc2c1CN(Cc1ccc3c(c1)CCNCC3)CC2 | > 99.5 µM
C1=C(c2cccnc2)CN(Cc2c[nH]c3ccccc23)CC1 | > 99.5 µM
O[C@@H]1CNC[C@H]1c1c[nH]c2ccccc12 | > 99.5 µM
CCOC1CC(S(=O)(=O)N[C@H](C(=O)Nc2cccc(CN)c2)c2ccc(OCc3ccccc3)cc2)C1 (stereo partly specified) | > 99.5 µM
OC[C@H]1CCN(c2cncc(N3CCOCC3)n2)C1 | > 99.5 µM
NCc1cccc(NC(=O)[C@@H](NC(=O)OCc2ccccc2)c2cccc(-c3ccc(CN)cc3F)c2)c1 | 32.3 µM
O=Cc1ccc(N2CCC(C(=O)N3CCC(N4CCc5ccccc5C4)CC3)CC2)cc1 | > 0.782 µM
N#Cc1ccccc1O[C@H]1CC[C@H](NS(=O)(=O)c2ccc(Cl)cc2C(=O)O)CC1 | > 99.5 µM
CCn1nccc1S(=O)(=O)N[C@@H](C(=O)Nc1cccc(CN)c1)c1ccc(OCc2ccccc2)cc1 | > 99.5 µM

Other lines, results leading:

IC50 | SMILES
> 99.5 µM | Cc1cnnc(C(=O)Nc2cccc(CN)c2)c1
72 µM | NCc1cccc(NC(=O)[C@H](NC(=O)OCc2ccccc2)c2ccc(Br)cc2F)c1
69.7 µM | N[C@H]1CC[C@H](NC(=O)c2cc(Cl)cc(NC(=O)OCc3ccccc3)c2)C1
> 99.5 µM | C[C@H]1Oc2ccc(NC(=O)c3cc(Cl)cc(NC(=O)OCc4ccccc4)c3)cc2NC1=O
60.8 µM | CS(=O)(=O)c1cncc(-c2cccc([C@H](NC(=O)OCc3ccccc3)C(=O)Nc3cccc(CN)c3)c2)c1
> 25 µM | O=C(Nc1ccc2c(c1)CNC2)c1ccc(-c2cncs2)cc1
14.3 µM | CC(C)c1nc2c(C(=O)Nc3cccc(CN)c3)cccc2[nH]1
> 99.5 µM | Cc1cc(C#N)cc2c(Cc3ccc(-c4nnn[nH]4)cc3)c[nH]c12
> 25 µM | Cc1c(C(=O)Nc2cc(-c3cccnc3)ccn2)cc(C#N)n1C
22.4 µM | O=C(Nc1ccc2c(c1)CNC2)c1n[nH]c(=O)c2ccccc12
0.281 µM | O=C(Nc1ccc2c(c1)CNC2)c1cccc2[nH]ccc12
9.61 µM | COC(=O)c1cc(NC(=O)c2cc(Cl)cc(NC(=O)OCc3ccccc3)c2)cc(-c2nnn[nH]2)c1
5.43 µM | O=C(Nc1cc(Cl)cc(C(=O)Nc2ccc([C@H]3CCNC3)cc2)c1)OCc1ccccc1
4.32 µM | Brc1cc(CNc2ccc3c(c2)CNC3)c2cc[nH]c2c1
7.05 µM | C#C[C@H](Nc1ccc2c(c1)CNC2)c1cccc2[nH]c(=O)[nH]c12
61 µM | N[C@@H]1CC[C@H](CCNC(=O)c2cc(Cl)cc(NC(=O)OCc3ccccc3)c2)C1
8.64 µM | CNC(=O)c1cc(CN)cc([C@@H]2C[C@H]2c2cc(Cl)cc(NC(=O)OCc3ccccc3)c2)c1
> 99.5 µM | COc1c(C(N)=O)cc(Cl)cc1S(=O)(=O)Nc1cccc(-c2nnn[nH]2)c1
> 99.5 µM | O=C(O)COc1cccc(NC(=O)c2cc(Cl)cc(NC(=O)OCc3ccccc3)c2)c1
> 99.5 µM | CNC(=O)[C@H](Nc1cccc(-c2nnn[nH]2)c1)c1cc(Cl)cc(C2CC2)c1
22.3 µM | CCCCSc1ccc(Cl)cc1C(=O)Nc1cccc(CN)c1
> 99.5 µM | NCc1cccc(NC(=O)c2ccnc3[nH]c(C4CCOCC4)nc23)c1
> 99.5 µM | NCc1nc2cc(Cl)ccc2n1Cc1ccc(-c2nn[nH]n2)cc1
61.6 µM | Cc1cc(C(=O)Nc2cccc(CN)c2)c2cnn(-c3ccc(F)cc3)c2n1
> 25 µM | Cc1c[nH]c2ncnc(C(=O)Nc3ccc4c(c3)CNC4)c12
> 99.5 µM | O=C(Nc1cc(Cl)cc(C(=O)Nc2cc3n(n2)CCNC3)c1)OCc1ccccc1
> 99.5 µM | Cn1nc2c(c1NC(=O)c1cc(Cl)cc(NC(=O)OCc3ccccc3)c1)CNC2
0.276 µM | N#Cc1cc(Cl)cc(C(=O)Nc2ccc3c(c2)CNC3)c1
